# In patent publication US20210145000A1, “WEED CONTROL FROM APPLICATIONS OF PYRIDINE CARBOXYLIC ACID HERBICIDES AND ACETYL CoA CARBOXYLASE (ACCase) INHIBITORS” (Dow AgroSciences LLC, priority 2018, published 2021):
# “And” between values parts separate entries of the source, which are not always exact repeats. Identical values can stand only once.
# How the values were obtained:
# Test in all cases: Postemergence herbicidal activity, greenhouse, visual injury
# Type in all cases: in vivo
# [1] = system: pigweed (Amaranthus retroflexus, AMARE); conditions: post-emergence, Compound 1 10 g ai/ha, read-out: Effect (% visual injury) Obs
# Experimental: (§1) The plants were grown for 7-36 days (d) in a greenhouse with an approximate 14-hour (h) photoperiod which was maintained at about 23° C. during the day and 22° C. during the night. Nutrients and water were added on a regular basis and supplemental lighting was provided with overhead metal halide 1000-Watt lamps as necessary. The plants were employed for testing when they reached the second or third true leaf stage.
# (§2) Spray solutions of the experimental compound mixtures were prepared by adding the stock solutions to the appropriate amount of dilution solution to form a 12 mL spray solution in two-way combinations. […] Control plants were sprayed in the same manner with the solvent blank. Application rates for component (a) are in g ae/ha, and application rates for component (b) are in g ai/ha.
# (§3) The treated plants and control plants were placed in a greenhouse as described above and watered by sub-irrigation to prevent wash-off of the test compounds. After 20-22 d, the condition of the test plants as compared with that of the control plants was determined visually and scored on a scale of 0 to 100 percent where 0 corresponds to no injury and 100 corresponds to complete kill. […] The Colby method was used to determine the herbicidal effects expected from the mixtures.
# [2] = system: rice (Oryza sativa, ORYSA); conditions: post-emergence, read-out: Effect (% visual injury) Obs
# Experimental: as §1, §2, §3
# [3] = system: velvetleaf (Abutilon theophrasti, ABUTH); conditions: post-emergence, read-out: Effect (% visual injury) Obs
# Experimental: as §1, §2, §3
# [4] = system: blackgrass (Alopecurus myosuroides, ALOMY); conditions: post-emergence, read-out: Effect (% visual injury) Obs
# Experimental: as §1, §2, §3
# [5] = system: sunflower (Helianthus annuus, HELAN); conditions: post-emergence, read-out: Effect (% visual injury) Obs
# Experimental: as §1, §2, §3
# [6] = system: winter wheat (Triticum aestivum, TRZAW); conditions: post-emergence, read-out: Effect (% visual injury) Obs
# Experimental: as §1, §2, §3
# maize (Zea mays, ZEAMX) = conditions: post-emergence, read-out: Effect (% visual injury) Obs
# Experimental: as §1, §2, §3
# [7] = system: grain sorghum (Sorghum vulgare, SORVU); conditions: post-emergence, Compound 1 10 g ai/ha, read-out: Effect (% visual injury) Obs
# Experimental: as §1, §2, §3
# [8] = system: wild buckwheat (Polygonum convolvulus, POLCO); conditions: Compound 1 10 g ai/ha
# Experimental: as §1, §2, §3
# [9] = system: barnyardgrass (Echinochloa crus-galli, ECHCG); conditions: post-emergence, Compound 1 10 g ai/ha, read-out: Effect (% visual injury) Obs
# Experimental: as §1, §2, §3
# [10] = system: wild pansy (Viola tricolor, VIOTR); conditions: post-emergence, Compound 1 10 g ai/ha, read-out: Effect (% visual injury) Obs
# Experimental: as §1, §2, §3
# [11] = system: large crabgrass (Digitaria sanguinalis, DIGSA); conditions: post-emergence, read-out: Effect (% visual injury) Obs
# Experimental: as §1, §2, §3
# [12] = system: wild oat (Avena fatua, AVEFA); conditions: post-emergence, read-out: Effect (% visual injury) Obs
# Experimental: as §1, §2, §3
# [13] = system: common lambsquarters (Chenopodium album L., CHEAL); conditions: post-emergence, read-out: Effect (% visual injury) Obs
# Experimental: as §1, §2, §3
# [14] = system: giant foxtail (Setaria faberi, SETFA); conditions: post-emergence, Compound 1 10 g ai/ha, read-out: Effect (% visual injury) Obs
# Experimental: as §1, §2, §3
# [15] = system: soybean (Glycine max, GLXMA); conditions: post-emergence, read-out: Effect (% visual injury) Obs
# Experimental: as §1, §2, §3
# [16] = system: kochia (Kochia scoparia, KCHSC)
# Experimental: (§4) Seeds of the desired test plant species were planted in Sun Gro MetroMix® 306 planting mixture, which typically has a pH of 6.0 to 6.8 and an organic matter content of about 30 percent, in plastic pots with a surface area of 103.2 square centimeters (cm^2). When required to ensure good germination and healthy plants, a fungicide treatment and/or other chemical or physical treatment was applied. The plants were grown for 7-36 days (d) in a greenhouse with an approximate 14-hour (h) photoperiod which was maintained at about 23° C. during the day and 22° C. during the night. Nutrients and water were added on a regular basis and supplemental lighting was provided with overhead metal halide 1000-Watt lamps as necessary. The plants were employed for testing when they reached the second or third true leaf stage.
# (§5) An emulsifiable concentrate (EC) formulation containing Compound 1 at 100 gai/L was prepared by combining Compound 1 with 1-butyl-2-pyrrolidinone (Tamisolve NxG; 360.5 g/L), benzyl acetate (544.6 g/L) and Agnique MBL 520L surfactant (52.9 g/L). […] The concentrated stock solution was diluted with an aqueous mixture of 1.5% v/v of Agri-dex crop oil concentrate to provide the appropriate application rates. Compound requirements are based upon a 12 milliliter (mL) application volume at a rate of 187 liters per hectare (L/ha). Spray solutions of the experimental compound mixtures were prepared by adding the stock solutions to the appropriate amount of dilution solution to form a 12 mL spray solution in two-way combinations. Formulated compounds were applied to the plant material with an overhead Mandel track sprayer equipped with 8002E nozzles calibrated to deliver 187 L/ha over an application area of 0.503 square meters (m^2) at a spray height of 18 inches (43 centimeters (cm)) above average plant canopy. Control plants were sprayed in the same manner with the solvent blank. Application rates for component (a) are in g ae/ha, and application rates for component (b) are in g ai/ha.
# as §3
# [17] = system: poinsettia (Euphorbia heterophylla, EPHHL)
# Experimental: as §4, §5, §3
# [18] = system: winter rape (Brassica napus, BRSNW); conditions: post-emergence, read-out: Effect (% visual injury) Obs
# Experimental: as §4, §5, §3
# [19] = system: chickweed (Stellaria media, STEME); conditions: post-emergence, Compound 1 10 g ai/ha, read-out: Effect (% visual injury) Obs
# Experimental: as §4, §5, §3
# [20] = system: ivyleaf morningglory (Ipomoea hederacea, IPOHE); conditions: Compound 1 5 g ai/ha
# Experimental: as §4, §5, §3
smiles,measurement,setting,value
Nc1c(F)c(-c2ccc3cc[nH]c3c2F)nc(C(=O)O)c1Cl [Compound 1],pest or weed control at 10 g/ha,[1],97%
same,plant injury at 5 g/ha,[2]; Compound 1 5 g ai/ha,0%
same,plant injury at 10 g/ha,[2]; Compound 1 10 g ai/ha,10%
same,pest or weed control at 5 g/ha,[3]; Compound 1 5 g ai/ha,50%
same,pest or weed control at 10 g/ha,[3]; Compound 1 10 g ai/ha,60%
same,pest or weed control at 5 g/ha,[4]; Compound 1 5 g ai/ha,0%
same,pest or weed control at 10 g/ha,[4]; Compound 1 10 g ai/ha,0%
same,plant injury at 5 g/ha,[5]; Compound 1 5 g ai/ha,95%
same,plant injury at 10 g/ha,[5]; Compound 1 10 g ai/ha,90%
same,plant injury at 5 g/ha,[6]; Compound 1 5 g ai/ha,0%
same,plant injury at 10 g/ha,[6]; Compound 1 10 g ai/ha,0%
same,plant injury at 5 g/ha,"maize (Zea mays, ZEAMX); Compound 1 5 g ai/ha",0%
same,plant injury at 10 g/ha,"maize (Zea mays, ZEAMX); Compound 1 10 g ai/ha",0%
same,plant injury at 10 g/ha,[7],50%
same,Effect (% visual injury) Obs,[8],75%
same,pest or weed control at 10 g/ha,"[8]; Fallopia convolvulus, post-emergence, read-out: Effect (% visual injury) Obs",75%
same,pest or weed control at 10 g/ha,[9],60%
same,pest or weed control at 10 g/ha,[10],10%
same,pest or weed control at 5 g/ha,[11]; Compound 1 5 g ai/ha,0%
same,pest or weed control at 10 g/ha,[11]; Compound 1 10 g ai/ha,10%
same,pest or weed control at 5 g/ha,[12]; Compound 1 5 g ai/ha,0%
same,pest or weed control at 10 g/ha,[12]; Compound 1 10 g ai/ha,0%
same,pest or weed control at 5 g/ha,[13]; Compound 1 5 g ai/ha,100%
same,pest or weed control at 10 g/ha,[13]; Compound 1 10 g ai/ha,100%
same,pest or weed control at 10 g/ha,[14],50%
same,plant injury at 5 g/ha,[15]; Compound 1 5 g ai/ha,100%
same,plant injury at 10 g/ha,[15]; Compound 1 10 g ai/ha,100%
same,Effect (% visual injury) Obs,[16]; Compound 1 5 g ai/ha,60%
same,Effect (% visual injury) Obs,[16]; Compound 1 10 g ai/ha,60%
same,Effect (% visual injury) Obs,[17]; Compound 1 5 g ai/ha,100% and 97%
same,Effect (% visual injury) Obs,[17]; Compound 1 10 g ai/ha,97%
same,plant injury at 5 g/ha,[18]; Compound 1 5 g ai/ha,60%
same,plant injury at 10 g/ha,[18]; Compound 1 10 g ai/ha,45%
same,pest or weed control at 10 g/ha,[19],70%
same,Effect (% visual injury) Obs,[20],10%
